Source: patent publication US10988496B2, “Platinum (IV) complex” (Nippon Kayaku Kabushiki Kaisha, priority 2015, dated 2021)

Experiments:
Type in all cases: cell-based
[1] = tested on: gastric cancer cells KATO III; assay: In vitro antitumor assay (Methylene Blue staining), KATO III; details: 72 hours culture with compound; read-out: Cell line IC50 KATO III
Excerpt: (§1) Gastric cancer and pancreatic cancer cell lines were respectively inoculated on a 96-well plate. Gastric cancer cells KATO III were inoculated at a rate of 1×10^4 cells/well gastric cancer cells MKN-1 were inoculated at a rate of 5×10^5 cells/well, gastric cancer cells MKN-45 were inoculated at a rate of 1×10^4 cells/well, gastric cancer cells MKN-74 were inoculated at a rate of 1×10^4 cells/well, pancreatic cancer cells AsPC-1 were inoculated at a rate of […], pancreatic cancer cells BxPC-3 were inoculated at a rate of 5×10^5 cells/well, pancreatic cancer cells DAN-G were inoculated at a rate of 5×10^5 cells/well, and pancreatic cancer cells SUIT-2 were inoculated at a rate of 5×10^5 cells/well. After culturing the cells for 24 hours, each of the Example compounds or each of the Comparative Example compounds was added to the cells to obtain a final concentration of from 0.0244 μmol/L to 100 μmol/L at a common ratio of 4. Three technical replicates were used. Wells to which no drug was added were prepared as control, and wells to which cells and drugs were not added were prepared as blanks. After the cells were cultured for 72 hours, the culture fluid was removed, the cells were fixed with methanol, and then the cells were stained using a Methylene Blue stain solution. After excess Methylene blue stain solution was washed off, 200 μL of 0.1% hydrochloric acid was added to each well, and the dye was extracted. The light absorbance at 660 nm was measured using a microplate reader, and the cell proliferation inhibitory activity (GI %) was calculated from the light absorbance thus obtained by the following formula. GIXY %=(1−(AXY−B)/(C−B))×100
(§2) Here, GIXY % represents the cell prolj feration-inhibitory activity when the concentration of compound. X is Y μM; AXY represents the average light absorbance of the well to which compound X has been added at Y μM; B represents the light absorbance of a blank well; and C represents the tight absorbance of a control well.
(§3) The GIXY % was determined for various compound concentrations, and a proliferation-inhibition curve was plotted from the concentration and the cell proliferation-inhibitory activity.

[2] = tested on: gastric cancer cells MKN-1; assay: In vitro antitumor assay (Methylene Blue staining), MKN-1; details: 72 hours culture with compound; read-out: Cell line IC50 MKN-1
Excerpt: as §1, §2, §3

[3] = tested on: gastric cancer cells MKN-45; assay: In vitro antitumor assay (Methylene Blue staining), MKN-45; details: 72 hours culture with compound; read-out: Cell line IC50 MKN-45
Excerpt: as §1, §2, §3

[4] = tested on: gastric cancer cells MKN-74; assay: In vitro antitumor assay (Methylene Blue staining), MKN-74; details: 72 hours culture with compound; read-out: Cell line IC50 MKN-74
Excerpt: as §1, §2, §3

[5] = tested on: pancreatic cancer cells BxPC-3; assay: In vitro antitumor assay (Methylene Blue staining), BxPC-3; details: 72 hours culture with compound; read-out: Cell line IC50 BxPC-3
Excerpt: as §1, §2, §3

[6] = tested on: pancreatic cancer cells SUIT-2; assay: In vitro antitumor assay (Methylene Blue staining), SUIT-2; details: 72 hours culture with compound; read-out: Cell line IC50 SUIT-2
Excerpt: as §1, §2, §3

[7] = tested on: pancreatic cancer cells DAN-G; assay: In vitro antitumor assay (Methylene Blue staining), DAN-G; details: 72 hours culture with compound; read-out: Cell line IC50 DAN-G
Excerpt: as §1, §2, §3

[8] = tested on: pancreatic cancer cells AsPC-1; assay: In vitro antitumor assay (Methylene Blue staining), AsPC-1; details: 72 hours culture with compound; read-out: Cell line IC50 AsPC-1
Excerpt: as §1, §2, §3

SMILES | IC50 [1] [µM] | IC50 [2] [µM] | IC50 [3] [µM] | IC50 [4] [µM] | IC50 [5] [µM] | IC50 [6] [µM] | IC50 [7] [µM] | IC50 [8] [µM]
CC(=O)[O][Pt]1([OH])[O]C(=O)C(=O)[O]1.N[C@@H]1CCCC[C@H]1N (mixture of isomers) [Comparative Example 1, trans,cis,cis-[Pt(OH)(OAc)(R,R-dach) (ox)]] | 55.7 | 45.3 | 6.2 | > 100 | 44.3 | 26.1 | 36.7 | 62.9
N[C@@H]1CCCC[C@H]1N.O=C1[O][Pt]([Cl])([O]CCO)[O]C1=O (mixture of isomers) [Comparative Example 2, trans,cis,cis-[PtCl (OCH2CH2OH) (R,R-dach) (ox)]] | 42.6 | 10.8 | 1.9 | 58.1 | 5.7 | 6.1 | 5.6 | 9.7
N[C@@H]1CCCC[C@H]1N.O=C1[O][Pt]([OH])([OH])[O]C1=O (mixture of isomers) [Comparative Example 3, trans,cis,cis-[Pt(OH)2 (R,R-dach) (ox)]] |  | > 100 |  | > 100 |  | 39.2 | > 100 | 
N[C@@H]1CCCC[C@H]1N.O=C1[O][Pt]([OH])([Cl])[O]C(=O)C12CCC2 (mixture of isomers) [Comparative Example 5, trans,cis,cis-[PtCl(OH) (R,R-dach) (cbdc)]] |  | 4.5 |  | 29 |  | 3.3 | 3.4 | 
N[C@@H]1CCCC[C@H]1N.O=C1[O][Pt]([OH])([OH])[O]C(=O)C12CCC2 (mixture of isomers) [Comparative Example 6, trans,cis,cis-[Pt(OH)2(R,R-dach) (cbdc)]] |  | > 100 |  | > 100 |  | 79.4 | > 100 | 
N[C@@H]1CCCC[C@H]1N.O=C([O-])C(=O)[O-].[Cl-].[OH-].[Pt+4] (mixture of isomers) [Example 1, trans,cis,cis-[PtCl(OH) (R,R-dach) (ox)]] | 13.8 | 1.9 | 0.3 | 16 | 1.2 | 0.9 | 1 | 3.1
N[C@@H]1CCCC[C@H]1N.O=C1[O][Pt]([OH])([Br])[O]C1=O (mixture of isomers) [Example 2, trans,cis,cis-[PtBr(OH) (R,R-dach) (ox)]] |  | 2.7 |  |  |  | 1.5 |  | 
N[C@@H]1CCCC[C@H]1N.[OH][Pt]([Cl])([Cl])[Cl] (mixture of isomers) [Example 3, trans,cis,cis-[PtCl(OH) (R,R-dach) (Cl)2]] |  | 2.6 |  | 17.1 |  | 0.9 | 8.6 | 
N[C@@H]1CCCC[C@H]1N.O=C(CCc1ccccc1)[O][Pt]1([O]C(=O)CCc2ccccc2)[O]C(=O)C(=O)[O]1 [Comparative Example 4, trans,cis,cis-[Pt(OCOCH2CH2C6H5)2 (R,R-dach)(ox)]] |  | 9.2 |  | 27.3 |  | 1 | 6.8 | 
N[C@@H]1CCCC[C@H]1N.O=C([O-])C(=O)[O-].[Pt+2] [Example 1-OHP, oxaliplatin] | 9.2 | 0.5 | 0.1 | 8.6 | 0.8 |  | 1.1 | 1.6
NC1CCCCC1N.[Cl][Pt][Cl] (stereo not shown) [Pt(dach)Cl2] | 13.8 | 3.7 | 0.5 | 22.3 | 3.4 | 2.1 | 8.5 | 14.7
